The text below walks through data of patent US12637720B2, “Molecular subtyping of small cell lung cancer to predict therapeutic responses” (Board of Regents, The University of Texas System, priority 2019, dated 2026).

Data set [1] concerns MDA-SC53 and MDA-SC68 CDX models. Kind of data set: Cisplatin treatment of CTC-derived xenograft (CDX) models. The class given is in vivo, mice. An excerpt:
Circulating-tumor cell derived xenograft model generation. Patients diagnosed with SCLC at the University of Texas MD Anderson Cancer Center were selected on the basis of extensive-stage disease irrespective of age, gender or other clinical criteria. These patients underwent informed consent to Institutional Review Board (IRB)-approved protocol LAB10-0442 (“Evaluation of blood-based test for the detection of circulating tumor cells and circulating proteins and microRNAs and molecular analysis for polymorphisms and mutations”) and blood was collected. Technical details are as previously described (Stewart et al., 2020b). One vial of blood was collected for isolation and banking of plasma and peripheral blood mononuclear cells for use as a normal control. […] Mice were monitored for formation of a flank tumor and were euthanized when tumor burden reached 1000-1500 mm^3. […]
Single-cell RNAseq. […] Cells were then stained for anti-human HLA A647 (Biolegend 311414), Calcein AM (C3100MP) and DAPI (Lifetech D1306, 1 μg/mL) and sorted by Fluorescence-Activated Cell sorting (FACS) to select only live, human cells for downstream single cell transcriptomic analyses. Sorted cells were washed once with 0.04% BSA in PBS and counted on Countess II automated cell counter (ThermoFisher). […]

Another data set deals with SCLC cell lines. Briefly: Cisplatin CellTiter-Glo cell viability, IC50 compared between SCLC subtypes. It counts as cell-based. The protocol:
Drug response data. With the exception of cisplatin (Allison Stewart et al., 2017; Gay et al., 2019), drug response data included publicly available data sets (Polley et al., 2016). For cisplatin, cell lines were plated at 2,000 cells per well in 96-well plates 24 hours prior to treatment with drug using standard cell culture conditions. Each line was treated, in triplicate, with cisplatin at starting concentration of 10 μmon followed by 1:3 serial dilutions and DMSO-only control. Following 120-hour incubations, cell viability was assessed using CellTiter-Glo Luminescent Cell Viability Assay (Promega). IC50 values were estimated using software program drexplorer with fitting of multiple dose-response models and selection of best model using the residual standard error.
While there are biological differences between each subtype, it not known to what extent these differences yield distinct responses to anti-cancer therapies. To investigate subtype-specific vulnerabilities, SCLC cell line in vitro drug response data for over 500 drugs were used (Gay, 2019; Polley et al., 2016). […] For each subtype, a drug or drug class that worked especially well was identified, often accompanied by differential expression of the drug target or putative predictive biomarker.
(Cellular ATP, detected with luciferase, serves as a proxy for viable cell number.)

The next data set relates to platinum-resistant SCLC. Particulars: patients with platinum-resistant SCLC; cited from earlier work.
The subject of another data set is relapsed SCLC. To be noted: single-agent, relapsed SCLC patients, KEYNOTE-158; cited from earlier work.
Another data set addresses T1, DLL3 (Homo sapiens, UniProt Q9NYJ7).
T1 construct: host or cells: SCLC tumours of patients in the clinical trial (endogenous DLL3)
T1 sequence (Q9NYJ7 27-618): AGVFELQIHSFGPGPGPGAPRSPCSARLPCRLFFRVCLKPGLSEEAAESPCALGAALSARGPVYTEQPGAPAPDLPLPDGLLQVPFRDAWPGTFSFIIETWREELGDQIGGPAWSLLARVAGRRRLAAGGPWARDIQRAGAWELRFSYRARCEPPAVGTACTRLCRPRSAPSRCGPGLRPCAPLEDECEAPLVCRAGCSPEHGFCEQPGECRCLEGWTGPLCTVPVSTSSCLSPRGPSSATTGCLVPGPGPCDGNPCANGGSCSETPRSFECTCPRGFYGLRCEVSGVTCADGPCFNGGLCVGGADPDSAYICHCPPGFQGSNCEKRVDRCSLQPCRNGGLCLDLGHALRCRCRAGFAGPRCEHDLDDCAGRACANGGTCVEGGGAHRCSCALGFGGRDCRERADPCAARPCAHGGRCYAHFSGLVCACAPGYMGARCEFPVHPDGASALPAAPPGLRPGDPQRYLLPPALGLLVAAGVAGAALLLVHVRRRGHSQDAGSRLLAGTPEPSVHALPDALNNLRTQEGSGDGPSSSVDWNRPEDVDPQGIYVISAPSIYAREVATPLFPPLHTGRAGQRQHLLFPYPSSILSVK
Particulars: cited from earlier work.

For `N.N.[Cl][Pt][Cl]` [cisplatin], the “response of CDX model to cisplatin” value is reported as “cisplatin-resistant” in data set [1] (MDA-SC68rel model, relapsed after in vivo cisplatin treatment) and “cisplatin-sensitive” in data set [1] (treatment-naive MDA-SC68 parental model). For the same molecule, the “cisplatin sensitivity of SCLC-A models” value with SCLC cell lines (SCLC-A) is “range of sensitivities”. Besides, in the data set on SCLC cell lines (SCLC-I), the “cisplatin sensitivity of SCLC-I models” value is “resistant”. For the same molecule, the “cisplatin sensitivity of SCLC-N models” value in the data set on SCLC cell lines (SCLC-N) is reported as “resistant”. Also, in the data set with SCLC cell lines (SCLC-P, mean IC50 versus other subtypes, trend), the “cisplatin sensitivity of SCLC-P models” value is reported as “most sensitive”.

As to “nivolumab: anti-PD-1 antibody described in WO2006/121168”, in the data set on platinum-resistant SCLC, the “overall survival benefit versus chemotherapy” value was “preferential OS benefit”.

With “pembrolizumab: anti-PD-1 antibody described in WO2009/114335”, the response rate in the data set on relapsed SCLC was 19%.

B1: rovalpituzumab tesirine: ADC targeting the inhibitory Notch ligand Delta-like ligand 3 (DLL3) (conjugate, chains of the INN, looked up)
VH: QVQLVQSGAEVKKPGASVKVSCKASGYTFTNYGMNWVRQAPGQGLEWMGWINTYTGEPTYADDFKGRVTMTTDTSTSTAYMELRSLRSDDTAVYYCARIGDSSPSDYWGQGTLVTVSS
VL: EIVMTQSPATLSVSPGERATLSCKASQSVSNDVVWYQQKPGQAPRLLIYYASNRYTGIPARFSGSGSGTEFTLTISSLQSEDFAVYYCQQDYTSPWTFGQGTKLEIK
modifications: tesirine
As to B1, the clinical activity result in the data set with DLL3 (Phase II clinical trial for SCLC) is on record as “only modest activity”. For the same molecule, the toxicity entry with DLL3 (Phase II clinical trial, of the conjugated cytotoxic molecule) is recorded as “unexpected toxicity”.
